Measurements published in PubChem BioAssay AID248 (DTP/NCI, 2004).
Where “and” joins values, the source holds several entries; their conditions need not be identical. Equal values may be shown once. Inconclusive results and toxic doses are left out. Rule as the data show it: active = T/C of 150% or more; inactive = T/C below 125%.

Test system: L1210 leukemia ip in BDF1 mice, survival T/C
Test: NCI In Vivo Anticancer Drug Screen. Data for tumor model L1210 Leukemia (intraperitoneal) in B6D2F1 (BDF1) mice
Conditions: endpoint: mean survival time, higher = longer survival
In short: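 Read-out is survival time, reported as the treated-group measurement over the vehicle-control measurement.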

[1] = dose: 200.0 mg/kg/injection, schedule: Q01DX001 (ip), vehicle: saline
[2] = dose: 400.0 mg/kg/injection, schedule: Q01DX001 (ip), vehicle: saline
[3] = dose: 100.0 mg/kg/injection, schedule: Q01DX009 (ip), vehicle: Klucel (hydroxypropylcellulose) (HPC)
[4] = dose: 100.0 mg/kg/injection, schedule: Q04DX003 (ip), vehicle: Klucel (hydroxypropylcellulose) (HPC)
[5] = dose: 200.0 mg/kg/injection, schedule: Q01DX009 (ip), vehicle: Klucel (hydroxypropylcellulose) (HPC)
[6] = dose: 200.0 mg/kg/injection, schedule: Q04DX003 (ip), vehicle: Klucel (hydroxypropylcellulose) (HPC)
[7] = dose: 400.0 mg/kg/injection, schedule: Q01DX009 (ip), vehicle: Klucel (hydroxypropylcellulose) (HPC)
[8] = dose: 400.0 mg/kg/injection, schedule: Q04DX003 (ip), vehicle: Klucel (hydroxypropylcellulose) (HPC)
[9] = dose: 25.0 mg/kg/injection, schedule: Q04DX003 (ip), vehicle: saline with Tween-80
[10] = dose: 50.0 mg/kg/injection, schedule: Q04DX003 (ip), vehicle: saline with Tween-80
[11] = dose: 100.0 mg/kg/injection, schedule: Q04DX003 (ip), vehicle: saline with Tween-80
[12] = dose: 75.0 mg/kg/injection, schedule: Q01DX001 (ip), vehicle: saline
[13] = dose: 150.0 mg/kg/injection, schedule: Q01DX001 (ip), vehicle: saline
[14] = dose: 25.0 mg/kg/injection, schedule: Q01DX009 (ip), vehicle: saline with Tween-80
[15] = dose: 50.0 mg/kg/injection, schedule: Q01DX009 (ip), vehicle: saline with Tween-80
[16] = dose: 100.0 mg/kg/injection, schedule: Q01DX009 (ip), vehicle: saline with Tween-80

Measured: T/C

Cc1cc(Cl)c(C)c(Cl)c1Cl
inactive: dose: 100.0 mg/kg/injection, schedule: Q01DX001 (ip), vehicle: acetone 100 % of control | dose: 100.0 mg/kg/injection, schedule: Q01DX009 (ip), vehicle: acetone 92 % of control | dose: 100.0 mg/kg/injection, schedule: Q04DX003 (ip), vehicle: acetone 93 % of control | dose: 200.0 mg/kg/injection, schedule: Q01DX001 (ip), vehicle: acetone 97 % of control | dose: 200.0 mg/kg/injection, schedule: Q01DX009 (ip), vehicle: acetone 95 % of control | dose: 200.0 mg/kg/injection, schedule: Q04DX003 (ip), vehicle: acetone 97 % of control | dose: 400.0 mg/kg/injection, schedule: Q01DX001 (ip), vehicle: acetone 90 % of control | dose: 400.0 mg/kg/injection, schedule: Q01DX009 (ip), vehicle: acetone 95 % of control | dose: 400.0 mg/kg/injection, schedule: Q04DX003 (ip), vehicle: acetone 92 % of control

CCCCCC1OC1C/C=C\CCCCCCCC(=O)OCC(O)COC(=O)CCCCCCC/C=C\CC1OC1CCCCC (stereo not given)
inactive: dose: 100.0 mg/kg/injection, schedule: Q01DX001 (ip), vehicle: saline 97 % of control | [1] 97 % of control | [2] 95 % of control

O=C1c2ccccc2C(=O)N1CC(=O)N(C(=O)NC1CCCCC1)C1CCCCC1
inactive: dose: 100.0 mg/kg/injection, schedule: Q01DX001 (ip), vehicle: water 109 % of control | dose: 100.0 mg/kg/injection, schedule: Q01DX009 (ip), vehicle: water 103 % of control | dose: 100.0 mg/kg/injection, schedule: Q04DX003 (ip), vehicle: water 94 % of control | dose: 200.0 mg/kg/injection, schedule: Q01DX001 (ip), vehicle: water 104 % of control | dose: 200.0 mg/kg/injection, schedule: Q01DX009 (ip), vehicle: water 95 % of control | dose: 200.0 mg/kg/injection, schedule: Q04DX003 (ip), vehicle: water 96 % of control | dose: 400.0 mg/kg/injection, schedule: Q01DX001 (ip), vehicle: water 98 % of control | dose: 400.0 mg/kg/injection, schedule: Q01DX009 (ip), vehicle: water 103 % of control | dose: 400.0 mg/kg/injection, schedule: Q04DX003 (ip), vehicle: water 97 % of control

CCOC(=O)C(=O)c1c(C)[nH]c2ccccc12
inactive: [3] 96 % of control | [4] 103 % of control | [5] 92 % of control | [6] 95 % of control | [7] 94 % of control | [8] 97 % of control

O=S1(=O)c2ccccc2Oc2ccccc21
inactive: dose: 50.0 mg/kg/injection, schedule: Q01DX001 (ip), vehicle: other 93 % of control | dose: 100.0 mg/kg/injection, schedule: Q01DX001 (ip), vehicle: other 93 % of control | dose: 200.0 mg/kg/injection, schedule: Q01DX001 (ip), vehicle: other 100 % of control | dose: 400.0 mg/kg/injection, schedule: Q01DX001 (ip), vehicle: other 96 % of control

O=C(O)c1ccccc1Cc1ccc2c(c1)Cc1ccccc1-2
inactive: dose: 100.0 mg/kg/injection, schedule: Q01DX001 (ip), vehicle: carboxymethylcellulose (CMC) 92 % of control | dose: 200.0 mg/kg/injection, schedule: Q01DX001 (ip), vehicle: carboxymethylcellulose (CMC) 94 % of control | dose: 400.0 mg/kg/injection, schedule: Q01DX001 (ip), vehicle: carboxymethylcellulose (CMC) 113 % of control

Cc1ccc(NC(=O)N(O)C2CCCCC2C#N)cc1 (stereo not given)
inactive: [1] 96 % of control | [2] 91 % of control

c1ccc(-c2nncnn2)cc1
inactive: [9] 97 % of control | [10] 92 % of control | [11] 101 % of control

COc1cc([N+](=O)[O-])ccc1NC(=O)NCCc1ccc(OC)c(OC)c1
inactive: [3] 93 % of control | [5] 96 % of control | [7] 100 % of control

COc1ccc2c(C(=O)N(CCCl)CCCl)cc3cc(OC)c(OC)cc3c2c1
inactive: dose: 25.0 mg/kg/injection, schedule: Q04DX003 (ip), vehicle: saline 116 % of control | dose: 50.0 mg/kg/injection, schedule: Q04DX003 (ip), vehicle: saline 102 % of control

COc1ccc(C(=O)OCCN(CCN(CCOC(=O)c2ccc(OC)cc2)C(=O)c2ccc(OC)cc2)C(=O)c2ccc(OC)cc2)cc1
inactive: dose: 25.0 mg/kg/injection, schedule: Q01DX009 (ip), vehicle: Klucel (hydroxypropylcellulose) (HPC) 88 % of control | dose: 50.0 mg/kg/injection, schedule: Q01DX009 (ip), vehicle: Klucel (hydroxypropylcellulose) (HPC) 96 % of control | [3] 89 % of control | [5] 94 % of control | [7] 105 % of control

Cc1ccc(OC(=O)C2=C(C(=O)Oc3ccc(C)cc3)CCC2)cc1
inactive: [12] 95 % of control | [13] 97 % of control | dose: 300.0 mg/kg/injection, schedule: Q01DX001 (ip), vehicle: saline 95 % of control

CCc1c(Nc2ccccc2Cl)nc(N)[nH]c1=O
inactive: dose: 100.0 mg/kg/injection, schedule: Q01DX Z (ip), vehicle: methylcellulose (MC) 95 % of control

NCCSC(O)(C(F)(F)F)C(F)(F)F
inactive: dose: 37.5 mg/kg/injection, schedule: Q04DX003 (ip), vehicle: saline 103 % of control | [12] 113 % of control and 101 % of control | dose: 75.0 mg/kg/injection, schedule: Q04DX003 (ip), vehicle: saline 102 % of control and 103 % of control | [13] 106 % of control and 109 % of control | dose: 150.0 mg/kg/injection, schedule: Q04DX003 (ip), vehicle: saline 104 % of control and 100 % of control

O=c1c(N=Nc2ccc(Br)cc2)c(O)n(-c2ccc(Cl)cc2)c(=S)n1-c1ccccc1
inactive: dose: 37.5 mg/kg/injection, schedule: Q01DX001 (ip), vehicle: Klucel (hydroxypropylcellulose) (HPC) 107 % of control | dose: 75.0 mg/kg/injection, schedule: Q01DX001 (ip), vehicle: Klucel (hydroxypropylcellulose) (HPC) 108 % of control | dose: 150.0 mg/kg/injection, schedule: Q01DX001 (ip), vehicle: Klucel (hydroxypropylcellulose) (HPC) 104 % of control

COc1ccccc1C(=O)N/N=C\c1ccc(Cl)cc1Cl
inactive: dose: 100.0 mg/kg/injection, schedule: Q01DX009 (ip), vehicle: saline 111 % of control | dose: 100.0 mg/kg/injection, schedule: Q04DX003 (ip), vehicle: saline 122 % of control | dose: 200.0 mg/kg/injection, schedule: Q01DX009 (ip), vehicle: saline 97 % of control | dose: 200.0 mg/kg/injection, schedule: Q04DX003 (ip), vehicle: saline 103 % of control | dose: 400.0 mg/kg/injection, schedule: Q01DX009 (ip), vehicle: saline 94 % of control | dose: 400.0 mg/kg/injection, schedule: Q04DX003 (ip), vehicle: saline 100 % of control

C=C1C(=O)O[C@H]2C[C@@H](C)[C@@H]3CC(=O)OC[C@@]3(C)CC12 (stereo not given in full)
inactive: [14] 108 % of control | [9] 99 % of control | [15] 105 % of control | [10] 105 % of control | [16] 101 % of control | [11] 93 % of control and 103 % of control

Cc1ccc(S(=O)(=O)CC(=O)NC(C)C)cc1
inactive: [11] 100 % of control | dose: 200.0 mg/kg/injection, schedule: Q04DX003 (ip), vehicle: saline with Tween-80 110 % of control | dose: 400.0 mg/kg/injection, schedule: Q04DX003 (ip), vehicle: saline with Tween-80 97 % of control

CC[CH2][Sn]([Br])([CH2]CC)[CH2]CC
inactive: dose: 1.56 mg/kg/injection, schedule: Q01DX009 (ip), vehicle: saline 95 % of control | dose: 3.12 mg/kg/injection, schedule: Q01DX009 (ip), vehicle: saline 102 % of control

O=[N+]([O-])c1ccc(C2N=NCCS2)cc1 (stereo not given)
inactive: dose: 100.0 mg/kg/injection, schedule: Q01DX001 (ip), vehicle: Klucel (hydroxypropylcellulose) (HPC) 98 % of control | dose: 200.0 mg/kg/injection, schedule: Q01DX001 (ip), vehicle: Klucel (hydroxypropylcellulose) (HPC) 104 % of control | dose: 400.0 mg/kg/injection, schedule: Q01DX001 (ip), vehicle: Klucel (hydroxypropylcellulose) (HPC) 95 % of control

CC1(C)Cc2cc3ccccc3nc2-c2ccccc21
inactive: [14] 97 % of control | [15] 97 % of control | [16] 94 % of control

CCN1C(=O)NC(=O)/C(=C/N(CCO)CCO)C1=O
inactive: [3] 106 % of control | [4] 94 % of control | [5] 101 % of control | [6] 98 % of control | [7] 100 % of control | [8] 93 % of control
